Laboratory results from patent publication EP2578218A1, “Antiviral efficacy of disodium 2,6-dimethyl-1,4-dihydropyridine-3,5-bis(carbonyloxyacetate) and its derivatives” (Grindeks, A Joint Stock Company, priority 2011, dated 2013).

Test system: influenza virus (H3N2)
Assay: antiviral efficacy on MDCK cell line in vitro
Type: cell-based
Conditions: MDCK cells infected with influenza virus (H3N2); test compound present from 1 hour after viral infection until end of culture; over a wide concentration range (FIG.3-5)
Description: For influenza virus, MDCK cells that were permissive of viral replication were grown up to sufficient numbers in growth media with supplements. Once MDCK cells were confluent they were seeded into 96 well flat-bottomed plates (2x10^4 cells/well), incubated overnight and then infected with the influenza virus (H3N2) at the correct concentration and incubated in order to allow productive infection of the MDCK cells.
After the initial seeding of cells overnight (200 µl/well), the medium was removed and influenza viral infection performed in a smaller volume (25µl/well) for 1 hour. After the 1 hour infection, the viral inoculum was removed and replaced with medium (200p1/well) containing test compound. Thus, disodium 2,6-dimethyl-1,4-dihydropyridine-3,5-bis(carbonyloxyacetate) and its derivatives - disodium 2,4,6-trimethyl-1,4-dihydropyridine-3,5-bis-carbonyloxyacetate and disodium 4-ethyl-2,6-dimethyl-1,4-dihydropyridine-3,5-bis(carbonyloxyacetate) (compounds with general formula I), were presented from 1 hour after viral infection until the end of the culture period.
The antiviral efficacy of disodium 2,6-dimethyl-1,4-dihydropyridine-3,5-bis(carbonyloxyacetate) and its derivatives - disodium 2,4,6-trimethyl-1,4-dihydropyridine-3,5-bis(carbonyloxyacetate) and disodium 4-ethyl-2,6-dimethyl-1,4-dihydropyridine-3,5-bis(carbonyloxyacetate) (compounds with general formula I), were compared with already known medicaments, such as 1-methyl-2-phenylthiomethyl-3-carbethoxy-4-dimethylaminomethyl-5-oxybromoindole monohydrate hydrochloride and Oseltamivir, and results were represented in FIG.1., FIG.2., FIG.3., FIG.4. and FIG.5.

Row | SMILES | antiviral efficacy
1 | CC1=C(C(=O)OCC(=O)O)C(C)C(C(=O)OCC(=O)O)=C(C)N1 [disodium 2,4,6-trimethyl-1,4-dihydropyridine-3,5-bis-carbonyloxyacetate] | effective against influenza
2 | CC1=C(C(=O)OCC(=O)O)CC(C(=O)OCC(=O)O)=C(C)N1 [disodium 2,6-dimethyl-1,4-dihydropyridine-3,5-bis(carbonyloxyacetate)] | effective against influenza
3 | CCC1C(C(=O)OCC(=O)O)=C(C)NC(C)=C1C(=O)OCC(=O)O [disodium 4-ethyl-2,6-dimethyl-1,4-dihydropyridine-3,5-bis(carbonyloxyacetate)] | effective against influenza
